{
  "source": "patent US20230077280A1",
  "about": "“THERAPEUTIC COMPOUNDS FOR METHODS OF USE IN INSULIN RESISTANCE” (Baylor College of Medicine, priority 2019, published 2023)",
  "key": {"[1]": {"system": "mice with CKD", "test": "CKD mice (subtotal nephrectomy): body weight, fasting blood glucose, glucose tolerance test", "format": "in vivo", "procedure": "Animals: The experimental procedures were approved by the Institutional Animal Care and Use Committee of Baylor College of Medicine. Wild type (WT) mice (C57BL/6) were purchased from Jackson lab (Bar Harbor, Me.). To create a model of CKD, 8-10 week old mice underwent subtotal nephrectomy or sham-operated control as described; ^31 CKD mice with a BUN ˜80 mg/dl were studied. CKD or sham-operated control mice were assigned to two subgroups: one subgroup was injected intraperitoneally with TTI-101 (12.5 mg/kg body weight in D5W) every other day for 2 weeks, while the other subgroup received an identical volume of D5W for 2 weeks. For glucose tolerance tests (GTT), mice with free access to water were fasted for 16 hrs and then injected intraperitoneally (i.p.) with […] and tail vein blood was collected at 0, 30, 60 and 120 min intervals to measure blood glucose concentrations using a True Track Glucometer. For insulin tolerance test (ITT), mice were fasted for 4 hrs, then were injected i.p. with 2 units/kg insulin; tail vein blood was collected after 0, 30, 60 and 120 min to measure blood glucose concentrations. Changes in blood glucose were analyzed as the “area under curve” (AUC) method using Statstodo program (http://www.statstodo.com/AUC_Exp.php)."}, "[2]": {"system": "p-Stat3", "test": "Western blotting of gastrocnemius muscle lysates of CKD mice: p-Stat3", "format": "in vivo", "conditions": "12.5 mg/kg i.p. every other day for 2 weeks, western blotting (FIG. 1D)", "experimental": "Animals: The experimental procedures were approved by the Institutional Animal Care and Use Committee of Baylor College of Medicine. Wild type (WT) mice (C57BL/6) were purchased from Jackson lab (Bar Harbor, Me.). To create a model of CKD, 8-10 week old mice underwent subtotal nephrectomy or sham-operated control as described; ^31 CKD mice with a BUN 80 mg/dl were studied. […] Antibodies: The primary antibodies of p-Akt (Ser473) (D9E) #4060, Akt (40D4)#2920, p-Stat3 (Tyr705) ([MUT])#9145, Stat3(124H6)#9139 were from Cell Signaling technology (Beverly, Mass., USA). Antibody against Fbxo40 #ab190688 was from Abcam (Cambridge, Mass., USA). Antibody against IRS1 #611395 was obtained from BD Biosciences (San Jose, Calif.). Anti-GAPDH#PA1-987 was from Thermo Fisher Scientific. The antibody was verified by the molecular size of recognized proteins."}, "[3]": {"system": "p-Akt", "test": "Western blotting of gastrocnemius muscle lysates of CKD mice: p-Akt", "format": "in vivo", "conditions": "12.5 mg/kg i.p. every other day for 2 weeks, western blotting (FIG. 1D)", "procedure": "(§1) Animals: The experimental procedures were approved by the Institutional Animal Care and Use Committee of Baylor College of Medicine. Wild type (WT) mice (C57BL/6) were purchased from Jackson lab (Bar Harbor, Me.). To create a model of CKD, 8-10 week old mice underwent subtotal nephrectomy or sham-operated control as described; ^31 CKD mice with a BUN 80 mg/dl were studied. CKD or sham-operated control mice were assigned to two subgroups: one subgroup was injected intraperitoneally with TTI-101 (12.5 mg/kg body weight in D5W) every other day for 2 weeks, while the other subgroup received an identical volume of D5W for 2 weeks. Antibodies: The primary antibodies of p-Akt (Ser473) (D9E) #4060, Akt (40D4)#2920, p-Stat3 (Tyr705) ([…])#9145, Stat3(124H6)#9139 were from Cell Signaling technology (Beverly, Mass., USA). Antibody against Fbxo40 #ab190688 was from Abcam (Cambridge, Mass., USA). Antibody against IRS1 #611395 was obtained from BD Biosciences (San Jose, Calif.). Anti-GAPDH#PA1-987 was from Thermo Fisher Scientific. The antibody was verified by the molecular size of recognized proteins."}, "[4]": {"system": "Fbxo40", "test": "qPCR of Fbxo40 mRNA in TA muscles of CKD mice", "format": "in vivo", "conditions": "vs D5W diluent (FIG. 2G)", "procedure": "(§2) Animals: The experimental procedures were approved by the Institutional Animal Care and Use Committee of Baylor College of Medicine. Wild type (WT) mice (C57BL/6) were purchased from Jackson lab (Bar Harbor, Me.). To create a model of CKD, 8-10 week old mice underwent subtotal nephrectomy or sham-operated control as described; ^31 CKD mice with a BUN ˜80 mg/dl were studied. CKD or sham-operated control mice were assigned to two subgroups: one subgroup was injected intraperitoneally with TTI-101 (12.5 mg/kg body weight in D5W) every other day for 2 weeks, while the other subgroup received an identical volume of D5W for 2 weeks.\n(§3) RNA extraction and quantitative real-time PCR (qPCR): RNAs were isolated using the RNeasy kit (Qiagen, Valencia, Calif.) as instructed by the company. RT-PCR was performed to obtain relative gene expressions by calculating cycle threshold (Ct) values using GAPDH as an internal control (relative expression=2(sample Ct−GAPDH Ct)).^35 Sequences of primers will be provided upon request."}, "[5]": {"system": "IRS1", "test": "qPCR of IRS1 mRNA in TA muscles of CKD mice", "format": "in vivo", "conditions": "vs D5W diluent (FIG. 2H)", "procedure": "as §2, §3"}, "[6]": {"system": "Fbxo40", "test": "Western blotting of tibialis anterior muscle lysates of CKD mice: Fbxo40 protein", "format": "in vivo", "conditions": "western blotting (FIGS. 2I and 2J)", "procedure": "as §1"}, "[7]": {"system": "HFD-fed mice", "test": "High fat diet (HFD) mice: fasting blood glucose, glucose tolerance test, insulin tolerance test", "format": "in vivo", "conditions": "mice fed HFD 12 weeks", "procedure": "Another model was generated of insulin resistance by feeding wild type mice a high fat diet (HFD: 58% kcal from fat, Research Diets, New Brunswick, N.J.) for 12 weeks while control mice were fed the regular diet (RD: 11% kcal from fat). To study the effect of p-Stat3 on insulin resistance, HFD-fed mice were randomly assigned to two subgroups: one subgroup was injected intraperitoneally (i.p.) with TTI-101 (12.5 mg/kg body weight in D5W) every other day for 4 weeks, while the other subgroup received an identical volume of D5W for 4 weeks. For glucose tolerance tests (GTT), mice with free access to water were fasted for 16 hrs and then injected intraperitoneally (i.p.) with […] and tail vein blood was collected at 0, 30, 60 and 120 min intervals to measure blood glucose concentrations using a True Track Glucometer. For insulin tolerance test (ITT), mice were fasted for 4 hrs, then were injected i.p. with 2 units/kg insulin; tail vein blood was collected after 0, 30, 60 and 120 min to measure blood glucose concentrations. Changes in blood glucose were analyzed as the “area under curve” (AUC) method using Statstodo program (http://www.statstodo.com/AUC_Exp.php)."}, "[8]": {"system": "IRS1", "test": "Western blotting of muscle lysates of HFD mice: IRS1", "format": "in vivo", "conditions": "12.5 mg/kg i.p. every other day for 4 weeks, vs diluent (FIG. 3J)", "procedure": "(§4) Another model was generated of insulin resistance by feeding wild type mice a high fat diet (HFD: 58% kcal from fat, Research Diets, New Brunswick, N.J.) for 12 weeks while control mice were fed the regular diet (RD: 11% kcal from fat). To study the effect of p-Stat3 on insulin resistance, HFD-fed mice were randomly assigned to two subgroups: one subgroup was injected intraperitoneally (i.p.) with TTI-101 (12.5 mg/kg body weight in D5W) every other day for 4 weeks, while the other subgroup received an identical volume of D5W for 4 weeks. Antibodies: The primary antibodies of p-Akt ([…]) (D9E) #4060, Akt (40D4)#2920, p-Stat3 ([…]) (D3A7)#9145, Stat3(124H6)#9139 were from Cell Signaling technology (Beverly, Mass., USA). Antibody against Fbxo40 #ab190688 was from Abcam (Cambridge, Mass., USA). Antibody against IRS1 #611395 was obtained from BD Biosciences (San Jose, Calif.). Anti-GAPDH#PA1-987 was from Thermo Fisher Scientific. The antibody was verified by the molecular size of recognized proteins."}, "[9]": {"system": "p-Akt", "test": "Western blotting of muscle lysates of HFD mice: p-Akt", "format": "in vivo", "conditions": "12.5 mg/kg i.p. every other day for 4 weeks, vs diluent (FIG. 3J)", "procedure": "as §4"}, "[10]": {"system": "mice with CKD", "conditions": "earlier experiments (refs 33, 34); cited from earlier work"}},
  "data": [
    {"smiles": "COc1ccc(S(=O)(=O)Nc2cc(-c3c(O)ccc4ccccc34)c(O)c3ccccc23)cc1", "note": "[TTI-101, N-(1′,2-dihydroxy-1,2′-binaphthalen-4′-yl)-4-methoxybenzenesulfonamide]", "values": [
      {"measurement": "glucose tolerance", "setting": "[1]; 12.5 mg/kg i.p. every other day for 2 weeks, vs D5W diluent (FIG. 1C)", "result": "significantly improved"},
      {"measurement": "body weight", "setting": "[1]; 12.5 mg/kg i.p. every other day, after 2 weeks of treatment, vs D5W diluent (FIG. 1A)", "result": "increased"},
      {"measurement": "blood glucose levels (fasting, 16 hr)", "setting": "[1]; 12.5 mg/kg i.p. every other day, after 2 weeks of treatment, vs D5W diluent (FIG. 1B)", "result": "decreased"},
      {"measurement": "p-Stat3 in muscle lysates", "setting": "[2]", "result": "suppressed"},
      {"measurement": "p-Akt in muscle lysates", "setting": "[3]", "result": "increasing"},
      {"measurement": "Fbxo40 mRNA in muscles", "setting": "[4]", "result": "suppression"},
      {"measurement": "IRS1 mRNAs in muscles", "setting": "[5]", "result": "increased"},
      {"measurement": "Fbxo40 protein in muscles", "setting": "[6]", "result": "significantly decreased"},
      {"measurement": "fasting values of blood glucose", "setting": "[7]; then 12.5 mg/kg i.p. every other day for 4 weeks with HFD continued, vs diluent (FIG. 3G)", "result": "decreased"},
      {"measurement": "glucose tolerance", "setting": "[7]; then 12.5 mg/kg i.p. every other day for 4 weeks, vs diluent (FIG. 3H)", "result": "improved"},
      {"measurement": "insulin tolerance", "setting": "[7]; then 12.5 mg/kg i.p. every other day for 4 weeks, vs diluent (FIG. 3I)", "result": "improved"},
      {"measurement": "IRS1 levels in muscles", "setting": "[8]", "result": "higher levels"},
      {"measurement": "p-Akt levels in muscles", "setting": "[9]", "result": "higher levels"},
      {"measurement": "body weights of mice", "setting": "[10]", "result": "increases"}
    ]}
  ]
}
